Legend:
[1] = target: D(2) dopamine receptor (Homo sapiens) (UniProt P14416); assay: Displacement of [3H]N-methylspiperone from human recombinant D2 receptor at 10 uM after 1.5 hrs by microbeta scintillation counting analysis
[2] = target: Alpha-2B adrenergic receptor (Homo sapiens) (UniProt P18089); assay: Displacement of [3H]clonidine from human recombinant alpha 2B adrenergic receptor at 10 uM after 40 mins by microbeta scintillation counting analysis
[3] = target: Mu-type opioid receptor (Homo sapiens) (UniProt P35372); assay: Displacement of [3H]DAMGO from mu-opioid receptor at 10 uM after 1.5 hrs by microbeta scintillation counting analysis
[4] = target: D(1B) dopamine receptor (Homo sapiens) (UniProt P21918); assay: Displacement of [3H]SCH23390 from human recombinant D5 receptor at 10 uM after 1.5 hrs by microbeta scintillation counting analysis
[5] = target: Muscarinic acetylcholine receptor M1 (Homo sapiens) (UniProt P11229); assay: Displacement of [3H]QNB from human recombinant muscarinic M1 receptor at 10 uM after 1.5 hrs by microbeta scintillation counting analysis
[6] = target: Beta-1 adrenergic receptor (Homo sapiens) (UniProt P08588); assay: Displacement of [125I]Iodopindolol from beta 1 adrenergic receptor at 10 uM after 1.5 hrs by microbeta scintillation counting analysis
[7] = target: Alpha-1B adrenergic receptor (Homo sapiens) (UniProt P35368); assay: Displacement of [3H]prazosin from alpha 1B adrenergic receptor at 10 uM after 1 hr by microbeta scintillation counting analysis
[8] = target: 5-hydroxytryptamine receptor 1A (Homo sapiens) (UniProt P08908); assay: Displacement of [3H]-8-OH-DPAT from human recombinant 5-HT1A receptor at 10 uM after 1.5 hrs by microbeta scintillation counting analysis
[9] = target: 5-hydroxytryptamine receptor 2B (Homo sapiens, UniProt P41595); assay: Displacement of [3H]LSD from human recombinant 5-HT2B receptor at 10 uM after 1.5 hrs by microbeta scintillation counting analysis
[10] = target: Alpha-1D adrenergic receptor (Homo sapiens) (UniProt P25100); assay: Inhibitory activity against alpha 1D adrenergic receptor at 10 uM
[11] = target: 5-hydroxytryptamine receptor 6 (Homo sapiens, UniProt P50406); assay: Displacement of [3H]LSD from human recombinant 5-HT6 receptor at 10 uM after 1.5 hrs by microbeta scintillation counting analysis
[12] = target: Sodium-dependent serotonin transporter (Homo sapiens) (UniProt P31645); assay: Displacement of [3H]citalopram from human recombinant SERT at 10 uM after 1.5 hrs by microbeta scintillation counting analysis
[13] = target: Alpha-2A adrenergic receptor (Homo sapiens) (UniProt P08913); assay: Displacement of […] from alpha 2A adrenergic receptor at 10 uM after 40 mins by microbeta scintillation counting analysis
[14] = target: D(3) dopamine receptor (Homo sapiens) (UniProt P35462); assay: Displacement of [3H]N-methylspiperone from D3 receptor at 10 uM after 1.5 hrs by microbeta scintillation counting analysis
[15] = target: Kappa-type opioid receptor (Rattus norvegicus) (UniProt P34975); assay: Displacement of [3H]U69593 from rat kappa-opioid receptor at 10 uM after 1.5 hrs by microbeta scintillation counting analysis
[16] = target: Sigma non-opioid intracellular receptor 1 (Rattus norvegicus, UniProt Q9R0C9); assay: Displacement of [3H]pentazocine from sigma 1 receptor in rat brain membrane after 2.5 hrs by microbeta scintillation counting analysis; type: cell membranes
[17] = target: 5-hydroxytryptamine receptor 7 (Homo sapiens) (UniProt P34969); assay: Displacement of [3H]LSD from human recombinant 5-HT7 receptor at 10 uM after 1.5 hrs by microbeta scintillation counting analysis
[18] = target: Histamine H4 receptor (Homo sapiens) (UniProt Q9H3N8); assay: Displacement of [3H]histamine from histamine H4 receptor at 10 uM after 1.5 hrs by microbeta scintillation counting analysis
[19] = target: Muscarinic acetylcholine receptor M3 (Homo sapiens) (UniProt P20309); assay: Displacement of [3H]QNB from human recombinant muscarinic M3 receptor at 10 uM after 1.5 hrs by microbeta scintillation counting analysis
[20] = target: T1, Sodium-dependent dopamine transporter (Homo sapiens, UniProt Q01959); assay: Displacement of [3H]WIN35428 from human recombinant DAT after 1.5 hrs by microbeta scintillation counting analysis
Histamine H2 receptor = Histamine H2 receptor (Homo sapiens, UniProt P25021); assay: Displacement of [3H]tiotidine from human recombinant histamine H2 receptor at 10 uM after 1.5 hrs by microbeta scintillation counting analysis
Histamine H1 receptor = Histamine H1 receptor (Homo sapiens, UniProt P35367); assay: Displacement of [3H]pyrilamine from human recombinant histamine H1 receptor at 10 uM after 1.5 hrs by microbeta scintillation counting analysis
[21] = target: Muscarinic acetylcholine receptor M2 (Homo sapiens) (UniProt P08172); assay: Displacement of [3H]QNB from human recombinant muscarinic M2 receptor at 10 uM after 1.5 hrs by microbeta scintillation counting analysis
Rattus norvegicus = species: Rattus norvegicus; assay: Inhibitory activity against benzodiazepine receptor in rat brain at 10 uM; type: tissue-based
[22] = target: 5-hydroxytryptamine receptor 2C (Homo sapiens, UniProt P28335); assay: Displacement of [3H]mesulergine from human recombinant 5-HT2C receptor after 1.5 hrs by microbeta scintillation counting analysis
[23] = target: 5-hydroxytryptamine receptor 5A (Homo sapiens) (UniProt P47898); assay: Displacement of [3H]LSD from human recombinant 5-HT5A receptor at 10 uM after 1.5 hrs by microbeta scintillation counting analysis
[24] = target: 5-hydroxytryptamine receptor 1D (Homo sapiens) (UniProt P28221); assay: Displacement of [3H]GR125743 from human recombinant 5-HT1D receptor at 10 uM after 1.5 hrs by microbeta scintillation counting analysis
[25] = target: Histamine H3 receptor (Homo sapiens) (UniProt Q9Y5N1); assay: Displacement of [3H]alpha-methylhistamine from human recombinant histamine H3 receptor at 10 uM after 1.5 hrs by microbeta scintillation counting analysis
[26] = target: D(4) dopamine receptor (Homo sapiens) (UniProt P21917); assay: Displacement of [3H]N-methylspiperone from D4 receptor at 10 uM after 1.5 hrs by microbeta scintillation counting analysis
[27] = target: T1, Sodium-dependent dopamine transporter; assay: Displacement of [3H]WIN35428 from human recombinant DAT at 10 uM after 1.5 hrs by microbeta scintillation counting analysis
[28] = target: Alpha-1A adrenergic receptor (Homo sapiens) (UniProt P35348); assay: Displacement of [3H]prazosin from alpha 1A adrenergic receptor at 10 uM after 1 hr by microbeta scintillation counting analysis
[29] = target: 5-hydroxytryptamine receptor 2A (Homo sapiens, UniProt P28223); assay: Displacement of [3H]ketanserin from human recombinant 5-HT2A receptor after 1.5 hrs by microbeta scintillation counting analysis
[30] = target: 5-hydroxytryptamine receptor 3A (Homo sapiens) (UniProt P46098); assay: Displacement of [3H]LY-278584 from human recombinant 5-HT3 receptor at 10 uM after 1.5 hrs by microbeta scintillation counting analysis
[31] = target: Alpha-2C adrenergic receptor (Homo sapiens) (UniProt P18825); assay: Displacement of [3H]clonidine from alpha 2C adrenergic receptor at 10 uM after 40 mins by microbeta scintillation counting analysis

T1 sequence (Q01959 whole entry): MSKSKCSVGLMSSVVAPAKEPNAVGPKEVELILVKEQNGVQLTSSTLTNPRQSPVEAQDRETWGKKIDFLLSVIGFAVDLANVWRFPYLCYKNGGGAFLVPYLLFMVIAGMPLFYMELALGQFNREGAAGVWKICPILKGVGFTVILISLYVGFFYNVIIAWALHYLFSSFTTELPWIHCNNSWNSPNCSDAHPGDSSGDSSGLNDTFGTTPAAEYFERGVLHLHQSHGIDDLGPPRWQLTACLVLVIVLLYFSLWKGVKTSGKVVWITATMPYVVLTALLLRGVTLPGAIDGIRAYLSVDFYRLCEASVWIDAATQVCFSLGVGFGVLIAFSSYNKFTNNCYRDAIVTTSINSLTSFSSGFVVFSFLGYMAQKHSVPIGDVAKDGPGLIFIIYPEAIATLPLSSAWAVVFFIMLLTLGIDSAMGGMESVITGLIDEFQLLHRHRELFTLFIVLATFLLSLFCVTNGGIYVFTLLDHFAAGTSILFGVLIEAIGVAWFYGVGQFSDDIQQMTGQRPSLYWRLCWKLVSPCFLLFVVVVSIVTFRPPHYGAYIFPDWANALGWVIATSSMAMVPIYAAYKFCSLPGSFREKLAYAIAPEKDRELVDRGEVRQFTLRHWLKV
Sequence of 5-hydroxytryptamine receptor 3A (Homo sapiens) (P46098 whole entry): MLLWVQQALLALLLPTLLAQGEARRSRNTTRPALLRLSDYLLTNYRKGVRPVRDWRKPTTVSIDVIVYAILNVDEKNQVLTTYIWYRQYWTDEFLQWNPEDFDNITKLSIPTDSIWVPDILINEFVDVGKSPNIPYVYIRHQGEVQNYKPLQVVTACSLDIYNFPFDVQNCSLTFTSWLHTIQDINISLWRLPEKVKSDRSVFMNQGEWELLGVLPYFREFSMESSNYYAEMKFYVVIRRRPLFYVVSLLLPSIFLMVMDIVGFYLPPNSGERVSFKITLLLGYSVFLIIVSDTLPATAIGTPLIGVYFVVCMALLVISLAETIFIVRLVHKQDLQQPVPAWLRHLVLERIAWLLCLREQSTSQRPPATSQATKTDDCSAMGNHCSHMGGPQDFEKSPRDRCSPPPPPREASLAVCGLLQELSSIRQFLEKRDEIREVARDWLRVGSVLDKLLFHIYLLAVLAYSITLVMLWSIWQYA
Sequence of Histamine H1 receptor (P35367 whole entry): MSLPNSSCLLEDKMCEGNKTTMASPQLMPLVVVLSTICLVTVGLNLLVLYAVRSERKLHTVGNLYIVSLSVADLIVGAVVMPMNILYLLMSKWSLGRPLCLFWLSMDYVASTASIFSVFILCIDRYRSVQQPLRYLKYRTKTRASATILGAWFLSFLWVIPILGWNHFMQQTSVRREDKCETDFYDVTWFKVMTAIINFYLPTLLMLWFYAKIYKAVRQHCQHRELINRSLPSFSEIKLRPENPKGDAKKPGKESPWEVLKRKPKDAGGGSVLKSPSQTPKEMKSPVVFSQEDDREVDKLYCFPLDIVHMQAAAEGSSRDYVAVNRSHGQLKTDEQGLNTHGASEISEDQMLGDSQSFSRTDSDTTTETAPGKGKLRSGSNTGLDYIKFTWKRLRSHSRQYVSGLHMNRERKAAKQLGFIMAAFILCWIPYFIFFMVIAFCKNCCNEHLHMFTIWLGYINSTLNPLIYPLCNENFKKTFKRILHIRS
Sequence of Alpha-2A adrenergic receptor (Homo sapiens) (P08913 whole entry): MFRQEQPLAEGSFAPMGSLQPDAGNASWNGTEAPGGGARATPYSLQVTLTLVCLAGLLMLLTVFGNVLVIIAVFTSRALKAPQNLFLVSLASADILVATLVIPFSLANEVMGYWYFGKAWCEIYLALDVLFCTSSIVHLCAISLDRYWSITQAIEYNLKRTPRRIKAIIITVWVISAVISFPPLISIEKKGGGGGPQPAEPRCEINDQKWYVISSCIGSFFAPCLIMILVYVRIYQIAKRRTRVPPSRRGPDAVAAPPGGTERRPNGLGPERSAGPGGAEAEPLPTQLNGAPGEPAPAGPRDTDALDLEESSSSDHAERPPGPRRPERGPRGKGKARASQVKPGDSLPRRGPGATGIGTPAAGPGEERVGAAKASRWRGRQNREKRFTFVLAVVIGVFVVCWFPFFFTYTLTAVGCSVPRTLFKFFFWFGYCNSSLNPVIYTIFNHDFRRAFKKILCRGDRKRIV
Sequence of Histamine H4 receptor (Homo sapiens) (Q9H3N8 whole entry): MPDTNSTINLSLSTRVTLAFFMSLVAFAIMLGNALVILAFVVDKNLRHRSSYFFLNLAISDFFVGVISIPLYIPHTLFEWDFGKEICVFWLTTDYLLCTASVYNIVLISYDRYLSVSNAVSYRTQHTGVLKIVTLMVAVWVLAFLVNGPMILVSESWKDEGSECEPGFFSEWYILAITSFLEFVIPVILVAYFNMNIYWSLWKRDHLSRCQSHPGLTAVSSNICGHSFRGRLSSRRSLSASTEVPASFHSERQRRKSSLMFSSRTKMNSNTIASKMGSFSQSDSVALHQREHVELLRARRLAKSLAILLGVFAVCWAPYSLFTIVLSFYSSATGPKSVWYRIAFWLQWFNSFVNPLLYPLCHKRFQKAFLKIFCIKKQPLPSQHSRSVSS
Sequence of 5-hydroxytryptamine receptor 1D (Homo sapiens) (P28221 whole entry): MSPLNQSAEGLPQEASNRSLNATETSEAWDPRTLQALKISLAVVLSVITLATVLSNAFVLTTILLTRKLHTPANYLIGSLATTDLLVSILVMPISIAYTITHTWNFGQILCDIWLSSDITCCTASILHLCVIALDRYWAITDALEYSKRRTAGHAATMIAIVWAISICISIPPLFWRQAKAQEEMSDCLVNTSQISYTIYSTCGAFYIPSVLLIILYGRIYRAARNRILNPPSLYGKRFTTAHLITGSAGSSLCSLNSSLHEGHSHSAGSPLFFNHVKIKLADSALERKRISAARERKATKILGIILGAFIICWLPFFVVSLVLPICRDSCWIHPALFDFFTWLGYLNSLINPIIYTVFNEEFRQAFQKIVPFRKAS
Sequence of D(1B) dopamine receptor (Homo sapiens) (P21918 whole entry): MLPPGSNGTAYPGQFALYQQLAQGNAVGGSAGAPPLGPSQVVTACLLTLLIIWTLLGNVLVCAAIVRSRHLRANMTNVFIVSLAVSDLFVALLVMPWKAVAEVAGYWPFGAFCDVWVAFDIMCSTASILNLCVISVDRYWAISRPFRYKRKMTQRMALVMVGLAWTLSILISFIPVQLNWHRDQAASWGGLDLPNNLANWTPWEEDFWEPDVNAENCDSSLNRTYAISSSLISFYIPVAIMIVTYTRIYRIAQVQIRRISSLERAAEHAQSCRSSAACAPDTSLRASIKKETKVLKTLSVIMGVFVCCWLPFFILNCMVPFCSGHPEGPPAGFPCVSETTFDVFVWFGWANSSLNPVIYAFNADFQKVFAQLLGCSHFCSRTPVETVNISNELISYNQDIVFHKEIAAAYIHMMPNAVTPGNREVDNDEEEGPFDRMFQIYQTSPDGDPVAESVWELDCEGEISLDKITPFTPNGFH
Sequence of 5-hydroxytryptamine receptor 1A (Homo sapiens) (P08908 whole entry): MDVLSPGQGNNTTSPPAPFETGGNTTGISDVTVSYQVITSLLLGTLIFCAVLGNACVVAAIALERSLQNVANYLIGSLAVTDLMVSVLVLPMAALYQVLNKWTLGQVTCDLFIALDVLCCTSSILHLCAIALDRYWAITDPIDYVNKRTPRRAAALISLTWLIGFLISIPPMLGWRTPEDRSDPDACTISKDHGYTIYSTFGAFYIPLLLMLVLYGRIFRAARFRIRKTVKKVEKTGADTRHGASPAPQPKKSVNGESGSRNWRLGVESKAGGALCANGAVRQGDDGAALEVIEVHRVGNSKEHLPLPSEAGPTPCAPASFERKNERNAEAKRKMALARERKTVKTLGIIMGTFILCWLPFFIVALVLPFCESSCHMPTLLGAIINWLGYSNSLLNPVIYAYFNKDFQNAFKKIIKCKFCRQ
Sequence of D(3) dopamine receptor (Homo sapiens) (P35462 whole entry): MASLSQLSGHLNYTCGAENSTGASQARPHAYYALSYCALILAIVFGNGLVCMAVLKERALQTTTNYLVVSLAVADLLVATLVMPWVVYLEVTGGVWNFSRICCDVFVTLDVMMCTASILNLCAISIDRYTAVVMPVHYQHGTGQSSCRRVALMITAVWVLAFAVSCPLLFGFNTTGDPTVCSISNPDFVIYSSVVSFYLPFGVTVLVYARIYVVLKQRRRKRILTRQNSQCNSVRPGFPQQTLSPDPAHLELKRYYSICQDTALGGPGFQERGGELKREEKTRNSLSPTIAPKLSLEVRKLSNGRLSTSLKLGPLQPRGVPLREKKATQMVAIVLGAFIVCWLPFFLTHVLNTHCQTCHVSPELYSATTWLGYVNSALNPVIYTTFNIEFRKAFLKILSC
Sequence of Alpha-1A adrenergic receptor (Homo sapiens) (P35348 whole entry): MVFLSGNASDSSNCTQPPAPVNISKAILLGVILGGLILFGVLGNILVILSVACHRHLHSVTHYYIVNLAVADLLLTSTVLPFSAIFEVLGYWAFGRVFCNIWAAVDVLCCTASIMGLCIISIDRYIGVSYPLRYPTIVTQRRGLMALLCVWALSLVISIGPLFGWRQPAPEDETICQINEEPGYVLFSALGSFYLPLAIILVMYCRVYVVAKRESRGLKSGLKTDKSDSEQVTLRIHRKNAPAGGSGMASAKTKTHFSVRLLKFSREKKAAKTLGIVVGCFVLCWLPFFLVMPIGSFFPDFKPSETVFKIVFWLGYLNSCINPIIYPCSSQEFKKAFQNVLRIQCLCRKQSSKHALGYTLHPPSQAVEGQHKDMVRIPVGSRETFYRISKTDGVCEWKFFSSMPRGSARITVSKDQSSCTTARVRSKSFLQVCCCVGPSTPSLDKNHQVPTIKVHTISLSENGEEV
Sequence of Kappa-type opioid receptor (Rattus norvegicus) (P34975 whole entry): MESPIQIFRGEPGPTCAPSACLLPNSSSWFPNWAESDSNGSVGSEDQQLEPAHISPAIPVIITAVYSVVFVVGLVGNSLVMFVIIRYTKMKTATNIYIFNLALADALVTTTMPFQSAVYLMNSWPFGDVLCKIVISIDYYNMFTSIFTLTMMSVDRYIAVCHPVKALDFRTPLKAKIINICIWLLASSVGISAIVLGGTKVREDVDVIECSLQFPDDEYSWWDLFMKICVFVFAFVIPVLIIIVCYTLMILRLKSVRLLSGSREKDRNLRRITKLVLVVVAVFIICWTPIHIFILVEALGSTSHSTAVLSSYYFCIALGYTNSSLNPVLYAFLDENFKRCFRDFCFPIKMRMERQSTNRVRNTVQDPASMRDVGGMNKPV

Structure (SMILES) | Efficacy [1] | Efficacy [2] | Efficacy [3] | Efficacy [4] | Efficacy [5] | Efficacy [6] | Efficacy [7] | Efficacy [8] | Efficacy [9] | Efficacy [10] | Efficacy [11] | Efficacy [12] | Efficacy [13] | Efficacy [14] | Efficacy [15] | Ki [16] | Efficacy [17] | Efficacy [18] | Efficacy [19] | Ki [20] | also measured
c1ccc(OCc2cc(OC[C@@H]3CCN3)no2)cc1 | 22.9% | 34.8% | 38.1% | 4.9% | 5.7% | 22.1% | 18.1% | 26.3% | 43.3% | 22.4% | 51.6% | 8.8% | 17.4% | 12.9% | 6.7% | 0.033 µM | 42.4% | 42.6% | 47.6% | 0.024 µM | Efficacy (Histamine H2 receptor): 40.9%; Efficacy (Histamine H1 receptor): 49.2%; Efficacy [21]: 12.6%; Efficacy (Rattus norvegicus): 23.5%; Ki [22]: > 10 µM; Efficacy [23]: 15.2%; Efficacy [24]: 14%; Efficacy [25]: 4.7%; Efficacy [26]: 30%; Efficacy [27]: 91.8%; Efficacy [28]: 17.5%; Ki [29]: 6.4 µM; Efficacy [30]: -0.1%; Efficacy [31]: 43.8%
c1ccc(OCc2cc(OC[C@@H]3CCCN3)no2)cc1 | 23.9% | 44.4% | 29.8% | 36.5% | 4.4% | -1.2% | 27.8% | 34.4% | 54.5% | 25.2% | 28.3% | 3.4% | 36.1% | 35.9% | 9.4% | 0.0041 µM | 16.9% | 26.5% | 12.2% | 0.373 µM | Efficacy (Histamine H2 receptor): 57.2%; Efficacy (Histamine H1 receptor): 55%; Efficacy [21]: 11.8%; Efficacy (Rattus norvegicus): 27.1%; Ki [22]: > 10 µM; Efficacy [23]: 32.4%; Efficacy [24]: 15.7%; Efficacy [25]: -4.9%; Efficacy [26]: 32%; Efficacy [27]: 59.4%; Efficacy [28]: 21%; Ki [29]: 4.41 µM; Efficacy [30]: 7%; Efficacy [31]: 39.3%
